# Assay: Delivery across full thickness murine skin in a Franz diffusion cell from drug reservoir with integrated PMVMA microneedle array
# Conditions: reservoir 19.0 mg TMP cm^-2 attached to PMVMA microneedle array; receiver compartment followed over 25 hours; FIG. 11
# Experimental: In this study, a matrix-type drug reservoir containing 19.0 mg TMP cm^−2 was prepared and attached to a poly(methylvinylether/maleic acid-co-glyceride) (PMVMA) microneedle array. This system was pressed into full thickness murine skin, mounted as the barrier membrane in a Franz diffusion cell, with the aid of gentle pressure. TMP appearing in the receiver compartment was determined by fluorescence spectroscopy over a period of 25 hours.
# An identical experiment to that described in Example 3 was performed again. The only difference was that the small very water soluble photosensitiser precursor 5-aminolevulinc acid (ALA, MW 167 Da) was used instead of TMP.
compound,measurement,value
"C[n+]1ccc(-c2c3nc(c(-c4cc[n+](C)cc4)c4ccc([nH]4)c(-c4cc[n+](C)cc4)c4nc(c(-c5cc[n+](C)cc5)c5ccc2[nH]5)C=C4)C=C3)cc1.Cc1ccc(S(=O)(=O)[O-])cc1.Cc1ccc(S(=O)(=O)[O-])cc1.Cc1ccc(S(=O)(=O)[O-])cc1.Cc1ccc(S(=O)(=O)[O-])cc1 [TMP, meso-Tetra (N-methyl-4-pyridyl) porphine tetra tosylate]",delivery of TMP across full thickness skin,sustained delivery of TMP across full thickness skin is possible

# Source: patent publication US9549746B2, “Delivery device and method” (THE QUEEN'S UNIVERSITY OF BELFAST, priority 2007, dated 2017)
